These results are taken from ChEMBL document CHEMBL1201862, “PubChem BioAssay data set” (2004).

For assay [1], the target named is T1, Type-1 angiotensin II receptor (Homo sapiens, UniProt P30556).
T1 sequence (P30556 whole entry): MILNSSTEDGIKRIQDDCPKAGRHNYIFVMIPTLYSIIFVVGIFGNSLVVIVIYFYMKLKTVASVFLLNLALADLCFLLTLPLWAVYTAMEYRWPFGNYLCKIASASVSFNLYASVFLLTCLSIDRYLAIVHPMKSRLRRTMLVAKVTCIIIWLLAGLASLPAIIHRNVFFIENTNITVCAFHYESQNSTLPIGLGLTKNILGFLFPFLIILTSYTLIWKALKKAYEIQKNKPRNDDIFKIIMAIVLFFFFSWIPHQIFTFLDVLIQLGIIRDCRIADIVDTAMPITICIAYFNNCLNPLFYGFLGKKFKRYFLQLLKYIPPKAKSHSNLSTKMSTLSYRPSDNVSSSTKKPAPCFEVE
Put plainly: agonist activity at AGTR1 – cell-based, uHTS hits, selectivity assay for APJ receptor agonist project, dose response (AID 488865).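 Also: beta-arrestin recruitment to AT1 measured by enzyme fragment complementation luminescence.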 The class given is functional.

Assay [2] deals with SUMO-activating enzyme (Homo sapiens, UniProt Q9UBT2). The assay can be described thus: blockers of UBC9-mediated SUMO conjugation – biochemical, AlphaScreen, SUMOylation inhibitor project, confirmation (AID 2018). The class given is functional. For orientation: Bead proximity is the source of the signal in Alpha formats.
In assay [3] the target is T2, Dual specificity protein phosphatase 6 (Rattus norvegicus, UniProt Q64346).
T2 sequence (Q64346 whole entry): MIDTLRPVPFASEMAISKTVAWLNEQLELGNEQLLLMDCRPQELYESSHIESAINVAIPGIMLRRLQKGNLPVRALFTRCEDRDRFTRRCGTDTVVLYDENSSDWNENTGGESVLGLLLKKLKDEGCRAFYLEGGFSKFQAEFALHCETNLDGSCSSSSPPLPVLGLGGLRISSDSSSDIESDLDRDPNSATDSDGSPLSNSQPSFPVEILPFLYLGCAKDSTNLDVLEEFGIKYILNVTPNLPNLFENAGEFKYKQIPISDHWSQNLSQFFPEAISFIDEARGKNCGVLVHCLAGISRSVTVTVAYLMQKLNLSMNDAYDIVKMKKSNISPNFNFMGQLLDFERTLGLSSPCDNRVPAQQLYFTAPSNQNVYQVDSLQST
Put plainly: inhibition of rat DUSP6 enzyme activity – biochemical, in vitro, primary screen (AID 425).

For assay [4], the target named is T3, Dual specificity protein phosphatase 3 (Homo sapiens, UniProt P51452). Put plainly: VHR1 phosphatase inhibitors, primary screen, biochemical, absorbance, uHTS (AID 1654).
T3 sequence (P51452 whole entry): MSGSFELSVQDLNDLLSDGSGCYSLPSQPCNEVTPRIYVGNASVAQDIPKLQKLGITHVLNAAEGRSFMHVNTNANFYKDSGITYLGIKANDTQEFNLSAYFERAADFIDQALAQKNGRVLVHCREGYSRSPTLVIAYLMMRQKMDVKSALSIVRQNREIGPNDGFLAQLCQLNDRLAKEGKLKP
In assay [5] the target is DNA dC->dU-editing enzyme APOBEC-3G (Homo sapiens, UniProt Q9HC16). Put plainly: Dose Response confirmation of small molecule APOBEC3G DNA Deaminase Inhibitors via a fluorescence-based single-stranded DNA deaminase assay. [Related pubchem assays (depositor defined):AID493012, AID493028]. The class given is functional.
DNA dC->dU-editing enzyme APOBEC-3G, sequence (Q9HC16 whole entry): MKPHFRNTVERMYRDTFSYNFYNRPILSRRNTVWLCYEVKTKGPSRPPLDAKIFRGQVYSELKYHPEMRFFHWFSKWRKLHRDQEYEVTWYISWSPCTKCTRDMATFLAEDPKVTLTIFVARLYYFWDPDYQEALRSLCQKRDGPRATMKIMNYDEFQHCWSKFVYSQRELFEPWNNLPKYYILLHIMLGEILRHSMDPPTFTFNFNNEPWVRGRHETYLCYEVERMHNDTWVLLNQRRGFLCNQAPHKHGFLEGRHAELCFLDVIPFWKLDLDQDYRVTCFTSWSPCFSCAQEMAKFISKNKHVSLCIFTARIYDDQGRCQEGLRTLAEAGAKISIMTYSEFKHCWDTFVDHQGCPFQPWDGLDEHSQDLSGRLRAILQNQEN
The target of assay [6] is T3, Dual specificity protein phosphatase 3. Put plainly: VHR1 phosphatase inhibitors, biochemical (AID 1878).
A short description of assay [7]: decrease of insulin promoter-GFP reporter – imaging, high-content screening, mouse beta cells (AID 1628). Format: functional. As to conditions: MIN6.
The nature of assay [8]: NIH3T3 cell viability loss – ATP luminescence, mouse fibroblasts, counter-screen, dose response (AID 2010).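 Also: cells exposed to compound for about 90 hours before reading.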 Format: functional, cell-based. In general terms: The purpose of a counterscreen is to sort out artefacts and off-target activity.
The nature of assay [9]: Trypanosoma cruzi growth suppression in host cells – NIH3T3 host cells, beta-gal luminescence, confirmation (AID 2044).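 Also: intracellular parasites grown in NIH/3T3 mouse fibroblasts as host cells; luminescent beta-galactosidase reporter signal from transgenic T. cruzi replicating inside host cells; inhibitors lower the luminescence signal.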 Format: functional, cell-based.
Assay [10] in a line: MIN6 cell viability loss – mouse insulinoma, cytotoxicity control, dose response (AID 2122).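 Also: confirmatory high-throughput counterscreen run to flag cytotoxic compounds.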 Format: functional.
For assay [11], the target named is Paired box protein Pax-8 (Homo sapiens, UniProt Q06710). The assay can be described thus: PAX8 transcriptional activity inhibition in RMG-I – RMG-I cells, luciferase, cherry-pick, dose response (AID 687027).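 Also: luciferase reporter driven by Pax8 target thyroperoxidase promoter measured by SteadyGlo luminescence.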 The class given is functional, cell-based.
Paired box protein Pax-8, sequence (Q06710 whole entry): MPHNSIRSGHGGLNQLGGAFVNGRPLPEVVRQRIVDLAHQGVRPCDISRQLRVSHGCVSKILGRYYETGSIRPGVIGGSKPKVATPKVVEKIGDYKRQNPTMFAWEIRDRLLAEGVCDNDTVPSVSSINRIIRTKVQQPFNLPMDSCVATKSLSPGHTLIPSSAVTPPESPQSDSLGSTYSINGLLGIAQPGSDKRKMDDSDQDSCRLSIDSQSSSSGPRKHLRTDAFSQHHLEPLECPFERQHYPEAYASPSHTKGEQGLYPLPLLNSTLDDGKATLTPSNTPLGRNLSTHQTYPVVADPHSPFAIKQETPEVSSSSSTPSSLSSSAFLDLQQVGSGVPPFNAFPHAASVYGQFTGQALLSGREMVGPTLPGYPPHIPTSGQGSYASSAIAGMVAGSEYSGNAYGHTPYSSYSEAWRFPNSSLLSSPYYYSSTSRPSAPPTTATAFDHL
The subject of assay [12] is Vero. Put plainly: mammalian cell viability reduction – secondary assay, cytotoxicity control for West Nile virus antiviral project, dose response (AID 1650). The conditions noted are these: Chlorocebus sabaeus. The class given is functional.
Assay [13] addresses T4, Ubiquitin-conjugating enzyme E2 N (Homo sapiens, UniProt P61088).
T4 sequence (P61088 whole entry): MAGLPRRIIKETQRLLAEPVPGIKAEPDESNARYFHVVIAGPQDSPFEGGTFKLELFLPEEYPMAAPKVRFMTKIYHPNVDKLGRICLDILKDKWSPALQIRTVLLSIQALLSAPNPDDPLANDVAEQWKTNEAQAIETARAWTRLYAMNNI
Format: functional.

Assay [14] has as its target T4, Ubiquitin-conjugating enzyme E2 N. The class given is functional. The source holds these as a separate data set.
For assay [15], the target named is T5, Bcl-2-related protein A1 (Mus musculus, UniProt Q07440).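 Also: confirmatory dose–response counterscreen on Bfl-1, used to check hits from a UBC13 polyubiquitin inhibitor campaign.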
T5 sequence (Q07440 whole entry): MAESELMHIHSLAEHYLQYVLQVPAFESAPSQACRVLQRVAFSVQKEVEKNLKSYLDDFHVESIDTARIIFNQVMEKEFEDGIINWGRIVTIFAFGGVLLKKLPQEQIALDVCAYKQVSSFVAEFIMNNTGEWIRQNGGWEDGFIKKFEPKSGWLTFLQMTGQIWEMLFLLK
Format: functional.

The target of assay [16] is Peroxisome proliferator-activated receptor gamma/Nuclear receptor coactivator 3 (Homo sapiens, UniProt P37231). The assay can be described thus: TR-FRET dose response biochemical High Throughput Screening assay for agonists of the steroid receptor coactivator 3 (SRC-3) recruitment by the peroxisome proliferator-activated receptor gamma (PPAR gamma): non-selective agonists. [Related pubchem assays: 1301 (Confirmation screen.), 1048 (Primary screen.)]. Format: functional. (In general: TR-FRET usually uses a lanthanide donor and a delayed reading to cut background.)

In assay [17] the target is Peroxisome proliferator-activated receptor gamma/Nuclear receptor coactivator 2 (Homo sapiens, UniProt P37231). The assay can be described thus: TR-FRET dose response biochemical High Throughput Screening assay for agonists of the steroid receptor coactivator 2 (SRC-2) recruitment by the peroxisome proliferator-activated receptor gamma (PPAR gamma): non-selective agonists. [Related pubchem assays: 1297, 1032 ]. The class given is functional.

Assay [18] has as its target Peroxisome proliferator-activated receptor gamma/Nuclear receptor coactivator 1 (Homo sapiens, UniProt P37231). The assay can be described thus: TR-FRET dose response biochemical High Throughput Screening assay for agonists of the steroid receptor coactivator 1 (SRC-1) recruitment by the peroxisome proliferator-activated receptor gamma (PPAR gamma): non-selective agonists. [Related pubchem assays (depositor defined):AID1300, AID1808, AID504735, AID631]. Format: protein assay.

A short description of assay [19]: A Cell Based Secondary Assay To Explore Cytotoxicity of Compounds that Sensitize Mycobacterium Tuberculosis to Beta-Lactam Antibiotics. The class given is functional.
Assay [20] can be described thus: viability of uninfected HEp-2 cells – cell-based, HTS, cytotoxicity control for RSV inhibitor project, dose response (AID 2410). Format: functional. As to conditions: human respiratory syncytial virus.
In assay [21] the target is Lysine-specific demethylase 4C (Homo sapiens, UniProt Q9H3R0). Put plainly: inhibition of JMJD2C H3K9me3 demethylation – biochemical, DELFIA europium, cherry-picked samples, dose response (AID 488835). Format: functional.
For assay [22], the system named is HEK293. The assay can be described thus: NOD2 signaling inhibitors in MDP-stimulated cells, cell-based, uHTS, luminescence (AID 2001). The conditions noted are these: Homo sapiens. The class given is functional.
Assay [23] deals with HEK293. The assay can be described thus: cells. The class given is functional, cell-based. The conditions noted are these: Homo sapiens.
The target of assay [24] is Nucleotide-binding oligomerization domain-containing protein 2 (Homo sapiens, UniProt Q9HC29). Put plainly: inhibition of NOD2-driven NF-kB reporter – cell-based, luminescence, uHTS, HEK293 (AID 1566). The class given is functional.
Nucleotide-binding oligomerization domain-containing protein 2, sequence (Q9HC29 whole entry, the tested form may be a part): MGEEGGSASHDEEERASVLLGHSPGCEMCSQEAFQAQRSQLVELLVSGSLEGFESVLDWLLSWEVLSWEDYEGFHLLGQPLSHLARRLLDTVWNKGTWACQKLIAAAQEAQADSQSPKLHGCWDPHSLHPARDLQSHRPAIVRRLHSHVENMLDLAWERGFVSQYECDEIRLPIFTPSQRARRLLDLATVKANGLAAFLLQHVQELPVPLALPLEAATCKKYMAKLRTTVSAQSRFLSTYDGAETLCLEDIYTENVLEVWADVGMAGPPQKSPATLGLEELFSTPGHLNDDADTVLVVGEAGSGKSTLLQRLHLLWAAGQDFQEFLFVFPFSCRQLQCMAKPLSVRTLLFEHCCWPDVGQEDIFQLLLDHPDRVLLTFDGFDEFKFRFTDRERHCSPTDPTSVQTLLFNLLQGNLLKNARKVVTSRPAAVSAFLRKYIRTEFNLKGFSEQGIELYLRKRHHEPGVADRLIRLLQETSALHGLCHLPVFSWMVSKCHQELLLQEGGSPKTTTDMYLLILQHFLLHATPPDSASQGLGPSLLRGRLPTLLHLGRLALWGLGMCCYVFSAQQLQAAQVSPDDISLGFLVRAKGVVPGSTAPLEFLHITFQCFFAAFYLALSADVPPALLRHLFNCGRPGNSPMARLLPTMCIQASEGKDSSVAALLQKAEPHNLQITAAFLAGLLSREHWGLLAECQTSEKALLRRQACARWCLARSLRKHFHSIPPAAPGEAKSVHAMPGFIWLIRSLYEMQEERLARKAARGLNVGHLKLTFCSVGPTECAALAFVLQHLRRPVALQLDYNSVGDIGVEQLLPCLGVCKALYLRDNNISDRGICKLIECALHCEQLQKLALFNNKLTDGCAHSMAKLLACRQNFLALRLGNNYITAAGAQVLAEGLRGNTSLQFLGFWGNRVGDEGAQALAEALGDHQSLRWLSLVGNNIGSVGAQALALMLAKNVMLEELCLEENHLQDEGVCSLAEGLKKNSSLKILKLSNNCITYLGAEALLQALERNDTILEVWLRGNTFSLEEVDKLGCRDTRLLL
Assay [25] has as its system HEK293. The assay can be described thus: cells. The class given is functional, cell-based. The conditions noted are these: Homo sapiens. The source holds these as a separate data set.
Assay [26] deals with HEK293. Put plainly: cells. The class given is functional, cell-based. The conditions noted are these: Homo sapiens. The source holds these as a separate data set.
Assay [27] has as its system HEK293. The assay can be described thus: inhibition of NOD1-driven NF-kB reporter – cell-based, luminescence, uHTS, primary screen (AID 1578). Format: functional. The conditions noted are these: Homo sapiens.
Assay [28] deals with Coagulation factor XII (Homo sapiens, UniProt P00748). Format: functional.
Coagulation factor XII, sequence (P00748 20-372 limits assumed): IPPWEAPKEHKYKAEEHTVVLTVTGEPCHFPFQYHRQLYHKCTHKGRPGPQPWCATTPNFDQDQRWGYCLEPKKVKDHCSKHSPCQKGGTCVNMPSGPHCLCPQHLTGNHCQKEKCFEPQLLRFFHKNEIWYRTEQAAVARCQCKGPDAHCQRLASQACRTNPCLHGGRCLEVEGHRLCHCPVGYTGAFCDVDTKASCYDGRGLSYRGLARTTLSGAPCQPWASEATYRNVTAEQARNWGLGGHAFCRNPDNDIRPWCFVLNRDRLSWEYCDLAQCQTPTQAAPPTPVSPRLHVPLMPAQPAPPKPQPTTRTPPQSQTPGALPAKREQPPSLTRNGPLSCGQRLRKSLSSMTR
Coagulation factor XII, sequence (P00748 373-615 limits assumed): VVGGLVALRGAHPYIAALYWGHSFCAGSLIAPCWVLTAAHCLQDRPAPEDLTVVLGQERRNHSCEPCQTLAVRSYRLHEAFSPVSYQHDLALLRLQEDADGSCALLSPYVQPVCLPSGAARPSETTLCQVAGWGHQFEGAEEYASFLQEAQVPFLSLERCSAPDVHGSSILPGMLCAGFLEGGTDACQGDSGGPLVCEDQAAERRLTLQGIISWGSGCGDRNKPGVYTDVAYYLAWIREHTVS

Activity calls are given as the source filed them. A value given as a limit tells only on which side of the number the result lay.

Peroxisome proliferator-activated receptor gamma/Nuclear receptor coactivator 1, sequence (P37231 whole entry): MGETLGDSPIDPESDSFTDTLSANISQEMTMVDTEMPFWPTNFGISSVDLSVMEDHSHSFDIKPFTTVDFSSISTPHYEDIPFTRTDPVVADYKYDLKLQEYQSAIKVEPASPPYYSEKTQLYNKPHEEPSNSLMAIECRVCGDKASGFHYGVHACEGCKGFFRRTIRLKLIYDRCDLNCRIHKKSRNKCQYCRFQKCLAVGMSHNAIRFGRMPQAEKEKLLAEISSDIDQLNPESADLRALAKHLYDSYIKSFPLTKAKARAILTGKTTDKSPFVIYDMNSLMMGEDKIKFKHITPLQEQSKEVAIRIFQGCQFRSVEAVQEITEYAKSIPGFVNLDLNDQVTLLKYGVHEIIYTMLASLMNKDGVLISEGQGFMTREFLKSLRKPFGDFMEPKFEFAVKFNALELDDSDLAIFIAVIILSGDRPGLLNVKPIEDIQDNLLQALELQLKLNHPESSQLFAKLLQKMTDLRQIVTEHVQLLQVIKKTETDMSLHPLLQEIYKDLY
Peroxisome proliferator-activated receptor gamma/Nuclear receptor coactivator 1, sequence (Q15788 whole entry, further chain): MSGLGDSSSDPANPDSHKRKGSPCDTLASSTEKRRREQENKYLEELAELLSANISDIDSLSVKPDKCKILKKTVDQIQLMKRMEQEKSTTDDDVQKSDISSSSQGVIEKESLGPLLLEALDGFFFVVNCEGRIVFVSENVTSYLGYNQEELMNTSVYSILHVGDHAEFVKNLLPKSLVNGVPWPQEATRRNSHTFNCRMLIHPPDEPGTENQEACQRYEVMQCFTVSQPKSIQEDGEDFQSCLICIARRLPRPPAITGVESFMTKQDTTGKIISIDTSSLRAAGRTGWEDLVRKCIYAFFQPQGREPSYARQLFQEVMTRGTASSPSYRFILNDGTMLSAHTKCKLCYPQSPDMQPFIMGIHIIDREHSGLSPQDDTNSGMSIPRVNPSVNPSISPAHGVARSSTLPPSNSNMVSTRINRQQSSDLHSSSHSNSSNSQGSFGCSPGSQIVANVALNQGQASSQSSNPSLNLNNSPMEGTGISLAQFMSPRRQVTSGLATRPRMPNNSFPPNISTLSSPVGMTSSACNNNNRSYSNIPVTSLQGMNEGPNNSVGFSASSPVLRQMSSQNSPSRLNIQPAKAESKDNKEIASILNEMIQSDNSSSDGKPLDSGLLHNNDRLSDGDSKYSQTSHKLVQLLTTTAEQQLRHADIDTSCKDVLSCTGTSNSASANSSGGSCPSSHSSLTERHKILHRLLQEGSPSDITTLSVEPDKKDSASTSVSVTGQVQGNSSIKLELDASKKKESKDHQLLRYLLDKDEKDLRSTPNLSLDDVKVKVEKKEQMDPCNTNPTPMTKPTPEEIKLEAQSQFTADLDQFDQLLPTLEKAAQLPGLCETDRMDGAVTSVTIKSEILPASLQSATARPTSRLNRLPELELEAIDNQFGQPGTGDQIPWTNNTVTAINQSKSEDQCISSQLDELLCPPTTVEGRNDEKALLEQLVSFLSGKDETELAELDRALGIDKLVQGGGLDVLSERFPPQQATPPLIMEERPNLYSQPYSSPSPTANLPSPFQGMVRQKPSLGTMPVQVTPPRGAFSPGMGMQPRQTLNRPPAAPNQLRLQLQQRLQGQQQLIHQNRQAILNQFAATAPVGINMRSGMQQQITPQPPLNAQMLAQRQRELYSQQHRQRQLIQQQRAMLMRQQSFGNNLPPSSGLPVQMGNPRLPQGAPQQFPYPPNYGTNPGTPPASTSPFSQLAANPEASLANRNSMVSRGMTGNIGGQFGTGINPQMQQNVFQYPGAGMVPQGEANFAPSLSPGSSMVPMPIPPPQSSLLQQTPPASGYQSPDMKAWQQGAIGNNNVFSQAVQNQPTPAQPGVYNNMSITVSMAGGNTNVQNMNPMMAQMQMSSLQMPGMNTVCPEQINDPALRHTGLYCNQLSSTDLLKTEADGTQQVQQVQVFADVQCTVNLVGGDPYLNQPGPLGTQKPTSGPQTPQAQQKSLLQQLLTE

In the case of `CCC(C)NC(=O)CSC1=Nc2ccccc2C2=NC(CC(=O)NCc3ccccc3)C(=O)N12` (stereo not drawn), the EC50 – broadly, the concentration giving half of the maximal effect – in [1] was > 100 µM (inactive).

In the case of `O=C(Nc1ccc(N2C(=O)C3C4C=CC(C4)C3C2=O)cc1)Nc1cccnc1` (stereo not drawn), in assay [2], the IC50 (as a rule, the concentration at which inhibition is half-maximal) is > 100 µM (inactive).

On to `COC(=O)c1sc(NC(=O)c2cc(-c3ccccc3)nc3ccccc23)c(C#N)c1C`, for which the half-inhibitory concentration (IC50) in [3] was > 158 µM (not active); in assay [4] it was 1.15 µM (active); in assay [5], 28.6 µM (active); in assay [6] it was 2.08 µM (active).

Regarding `O=c1cc(C(Cl)(Cl)Cl)oc2c1ccc1ccccc12`, the IC50 in assay [7] is 1.78 µM (active); in assay [10], 1.28 µM (active). Besides, the half-maximal effective concentration (EC50) in assay [8] was 3.32 µM (active); in [9], 0.893 µM (active). In addition, the AC50 – broadly, the concentration at which the activity in the assay is half-maximal – in assay [11] is 2.66 µM (active). For the same compound, the CC50 (as a rule, the concentration that lowers cell viability or growth by half) in [12] is 5.35 µM (active).

Take `NC(=S)N=Nc1c(O)n(CCCl)c2ccccc12`: the 50% inhibitory concentration (IC50) in assay [13] was 18 µM (active); in [14], 10.8 µM (active); in [15] it was > 20 µM (inactive).

For `CCn1c(=O)cc(SCC(=O)N2CCN(C3CCCCC3)CC2)c2ccccc21`, the concentration giving a half-maximal response (EC50) in [16] was > 79.4 µM (not active); in assay [17], > 79.4 µM (not active); in [18], > 79.4 µM (inactive). Further, the IC50 in assay [13] is 14.5 µM (active); in assay [14], > 20 µM (inactive); in assay [15] it was > 20 µM (inactive).

Take `Cc1cc(C=C2C(=O)NC(=S)NC2=O)c(C)n1-c1ccc2c(c1)OCO2`: the CC50 in assay [19] is > 40 µM (active); in [20], 14.3 µM (active). The half-maximal activity concentration (AC50) in [21] is 9.41 µM (active).

Regarding `Brc1ccc2ncnc(NCc3ccco3)c2c1`, the concentration for half-maximal inhibition (IC50) is 5.54 µM (active) in assay [22], > 20 µM (inactive) in assay [23], 4.57 µM (active) in assay [25] and > 20 µM (inactive) in [26]. In addition, the EC50 in [24] was 6.5 µM (active); in [27], 3.41 µM (active).

As to `COc1ccc(NC(NC(=O)c2cccnc2)C(Cl)(Cl)Cl)cc1` (stereo not drawn), the IC50 in assay [28] is > 50 µM (inactive).

As for `CCOC(=O)c1sc(N(C)C(C)=O)nc1C`, the IC50 in [28] is > 50 µM (inactive).

For `Cc1ccc(/C=N/NC(=O)CSc2nnc(-c3ccc(Cl)cc3)n2-c2ccccc2)o1`, the EC50 in assay [1] is > 100 µM (inactive).
